Like-named read-outs stand apart in the source and are kept apart here.
How the values were obtained:
[1] = system: LPS-induced expression of TNF-α in rat blood; assay: In vitro effect of the compound on LPS-induced expression of TNF-α in rat blood (ELISA); format: cell-based, Sprague Dawley rats; parameters: key to TNF-α inhibitory ratio: 80% ≥ + > 60%; ++ > 80%; — N/A; conditions: final compound concentration 100 μM, 5 hours, plasma TNF-α by ELISA; for inhibition at 100 µM: read-out: TNF-α inhibitory ratio
Source text: Experimental Example 2: In Vitro Evaluation of the Effect of the Compound on LPS-Induced Expression of TNF-α in Rat Blood
Experimental Objectives: To detect in vitro the effect of the test compound on LPS-induced expression of TNF-α in rat blood and evaluate the inhibitory effect of the compound on LPS-induced expression of TNF-α in rat blood.
Sprague Dawley rats (male, 210-260 g, 8-10 weeks old, Shanghai Slack)
Rat TNF-alpha Quantikine ELISA Kit (R & D, #SRTA00)
A solution of the test compound with a concentration of 1 mM was prepared and 40 μL (final compound concentration was 100 μM) was added to a 48-well cell culture plate. Rats were anesthetized with isoflurane and blood was collected from the heart (heparin anticoagulation). The blood was added to the 48-well cell plate to which the test compound has been added, with 320 μL per well. The 48-well plate was placed in a cell incubator, incubated for 30 minutes and then removed, added with 40 μL LPS solution (100 μg/mL), mixed and placed in the incubator to continue the incubation. 5 hours later, the 48-well plate was removed and the blood sample was transferred to a 1.5 mL centrifuge tube and centrifuged in a centrifuge (4,500 rpm, 4° C., 5 minutes). The plasma was separated from the supernatant, frozen quickly after packing and stored in −80° C. refrigerator. The next day the R&D ELISA kit was used to measure TNF-α levels in plasma samples according to the instructions of the kit.

[2] = biological target: T1, Full length human PDE2A protease (Homo sapiens, UniProt O00408); assay: In vitro evaluation of PDE2 phosphodiesterase inhibitory activity (Transcreener AMP2/GMP2 fluorescence polarization); format: biochemical
T1 construct: Full length human PDE2A protease; GST (N); host or cells: insect Sf9 cells (baculovirus)
Procedure: In Vitro Evaluation of PDE2 Phosphodiesterase Inhibitory Activity Experimental objectives: To detect the concentration of AMP/GMP produced in the reaction system by measuring the fluorescence intensity of the fluorescent dye AlexaFluor 633 substituted on AMP/GMP antibody and to calculate the PDE2 phosphodiesterase inhibitory IC50 value of the test compound. Test buffer solution: 10 mM Tris-HCl, pH 7.5, 5 mM MgCl2, 0.01% Brij 35, 1 mM DTT, and 1% DMSO. Enzyme: Full length human PDE2A protease expressed and recombined in insect Sf9 cells with baculovirus using N-terminal GST tag […] Transcreener® AMP^2/GMP^2 antibody, AMP2/GMP2 AlexaFluor 633 fluorescent dye The enzyme solution was prepared with freshly prepared buffer solution and then added to the reaction wells. The DMSO solution of the test compound was added by Echo550 non-contact nanoscale sonicate pipetting system and preincubated for 10 minutes at room temperature. The reaction was initiated by addition of substrate (1 μM cGMP) and allowed to react for one hour at room temperature. The detection system (Transcreener® AMP^2/GMP^2 antibody, AMP2/GMP2 AlexaFluor 633 fluorescent dye) was then added and reacted for 90 minutes at room temperature before fluorescence polarization was detected using Ex/Em 620/688. The intensity of fluorescence polarization was converted to nM concentration by the AMP/GMP standard curve and then relative inhibition of enzyme activity relative to DMSO blank was calculated. IC50 values and curves were calculated using the Prism software package (GraphPad Software, San Diego Calif., USA)

[3] = recombinant full length human PDE2A, substrate 1 μM cGMP, 1 hour at room temperature, read-out: PDE2 phosphodiesterase inhibitory activity

T1 sequence (O00408 whole entry): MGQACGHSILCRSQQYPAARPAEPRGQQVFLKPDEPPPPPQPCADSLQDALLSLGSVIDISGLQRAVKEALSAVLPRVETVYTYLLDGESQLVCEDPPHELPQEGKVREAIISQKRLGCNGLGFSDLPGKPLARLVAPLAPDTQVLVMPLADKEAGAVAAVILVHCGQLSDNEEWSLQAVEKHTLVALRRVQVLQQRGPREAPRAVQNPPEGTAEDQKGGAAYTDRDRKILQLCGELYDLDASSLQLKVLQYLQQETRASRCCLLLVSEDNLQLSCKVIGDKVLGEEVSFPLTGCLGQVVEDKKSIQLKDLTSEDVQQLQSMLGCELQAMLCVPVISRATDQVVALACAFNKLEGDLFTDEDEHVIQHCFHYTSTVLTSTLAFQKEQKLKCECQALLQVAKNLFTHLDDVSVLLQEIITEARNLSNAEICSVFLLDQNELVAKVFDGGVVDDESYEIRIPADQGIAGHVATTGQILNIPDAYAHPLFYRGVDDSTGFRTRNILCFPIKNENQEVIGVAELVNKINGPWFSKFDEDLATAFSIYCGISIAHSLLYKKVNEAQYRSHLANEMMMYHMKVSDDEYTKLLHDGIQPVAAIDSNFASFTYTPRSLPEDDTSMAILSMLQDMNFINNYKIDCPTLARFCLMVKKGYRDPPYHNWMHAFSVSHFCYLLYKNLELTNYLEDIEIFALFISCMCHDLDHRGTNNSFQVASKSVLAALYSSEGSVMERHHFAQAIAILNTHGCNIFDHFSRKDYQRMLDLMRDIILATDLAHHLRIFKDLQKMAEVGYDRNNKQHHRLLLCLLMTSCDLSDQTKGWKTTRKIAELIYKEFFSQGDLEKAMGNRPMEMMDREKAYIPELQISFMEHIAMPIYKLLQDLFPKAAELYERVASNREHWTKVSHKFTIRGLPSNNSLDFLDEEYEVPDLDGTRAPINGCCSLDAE

## Cn1cnc2c1c(=O)n(CCCN1CCCC1=O)c(=O)n2C [Example 3, 3,7-Dimethyl-1-(3-(2-oxopyrrolidin-1-yl)propyl)-1H-purine-2,6(3H,7H)-dione]
[1]
  TNF-α inhibitory ratio: —

## CC(C)c1cc(Cn2c(=O)c3c(ncn3C)n(C)c2=O)on1 [Example 15, 1-((3-Isopropylisoxazol-5-yl)methyl)-3,7-dimethyl-1H-purine-2,6(3H,7H)-dione]
[2]; [3]
  IC50: 1 to 10 µM
[1]
  inhibition at 100 µM: 60 to 80%

## Cc1cc(CCCCn2c(=O)c3c(ncn3C)n(C)c2=O)on1 [Example 19, 3,7-Dimethyl-1-(4-(3-methylisoxazol-5-yl)butyl)-1H-purine-2,6(3H,7H)-dione]
[2]
  IC50: 10 to 50 µM
[1]
  TNF-α inhibitory ratio: —

## Cc1noc(C)c1Cn1c(=O)c2c(ncn2C)n(C)c1=O [Example 25, 1-((3,5-Dimethylisoxazol-4-yl)methyl)-3,7-dimethyl-1H-purine-2,6(3H,7H)-dione]
[2]; [3]
  IC50: 10 to 50 µM
[1]
  TNF-α inhibitory ratio: —

## Cc1cc(C2CCC(n3c(=O)c4c(ncn4C)n(C)c3=O)CC2)on1 (centres unmarked) [Example 27, 3,7-Dimethyl-1-(4-(3-methylisoxazol-5-yl)cyclohexyl)-1H-purine-2,6(3H,7H)-dione]
[2]; [3]
  IC50: 10 to 50 µM
[1]
  TNF-α inhibitory ratio: —

## Cc1nc(C)c(CCn2c(=O)c3c(ncn3C)n(C)c2=O)s1 [Example 31, 1-(2-(2,4-Dimethylthiazol-5-yl)ethyl)-3,7-dimethyl-1H-purine-2,6(3H,7H)-dione]
[2]; [3]
  IC50: 1 to 10 µM
[1]
  TNF-α inhibitory ratio: —

## CC(C)c1cc(Cn2c(=O)c3c(ncn3CC3CC3)n(C)c2=O)on1 [Example 59, 7-(Cyclopropylmethyl)-1-((3-isopropylisoxazol-5-yl)methyl)-3-methyl-1H-purine-2,6(3H,7H)-dione]
[2]; [3]
  IC50: 1 to 10 µM
[1]
  inhibition at 100 µM: > 80%

## Cc1cc(CCCCn2cnn3cnc(CC(C)C)c3c2=O)on1 [Example 82, 5-isobutyl-3-(4-(3-methylisoxazol-5-yl)butyl)imidazo[5,1-F] [1,2,4]triazin-4-one]
[2]; [3]
  IC50: 1 to 10 µM
[1]
  inhibition at 100 µM: 60 to 80%

## Cc1cc(CCCCn2c(=O)c3cccnc3n(C)c2=O)on1 [Example 89, 1-Methyl-3-[4-(3-methylisoxazol-5-yl)butyl]pyrido[2,3-d]pyrimidine-2,4-dione]
[2]; [3]
  IC50: 10 to 50 µM
[1]
  inhibition at 100 µM: > 80%

From patent publication US10278973B2, “Hydroxyl purine compounds and use thereof” (GUANGDONG RAYNOVENT BIOTECH CO., LTD., priority 2015, dated 2019)
